Measured values as given in ChEMBL document CHEMBL1150705, “Plant anticancer agents XLIV. Cytotoxic constituents from Stizophyllum riparium” (1987).
In brackets after ≈: the same amount, converted by molar mass.

Test system: P388
Assay: Cytotoxicity against mouse P388 cells
Format: functional
Conditions: read-out: ED50 (the source's name)

SMILES: CC(=O)C1=CC[C@H]2C3=CCC4=C[C@@H](O)[C@H](O)C[C@]4(C)[C@H]3C[C@@H](O)[C@]12C [STIZOPHYLLIN]
- EC50: 0.07 µg/mL (≈ 0.203 µM)
